# Assay results: patent US11534440B2, “Combination therapy with Axl inhibitor and immune checkpoint modulator or oncolytic virus” (BerGenBio ASA, priority 2015, dated 2022)
# “Also recorded” adds a separate entry of the source.
# Tests used:
# [1] = tested on: Cytotoxic T cells (CTLs), Natural Killer cells, macrophages, neutrophils, mMDSCs; experiment: Immune cell sub-populations in tumors and spleens, 4T1 model; assay type: in vivo, Balb/c mice
# Description: • Species/Strain: Balb/c ABomTac • Source: Taconic Farms • Sex: Female • Weight: 20-30 grams on the day of implantation • Age: at least 6 weeks old on the day of randomization • Animal Identification: Cage number and ear notching Experimental Animals for Syngeneic Lewis Lung Model: • Species/Strain: C57BL/6JOlaHsd • Source: Harlan Laboratories • Sex: Female • Weight: 20-30 grams on the day of implantation • Age: at least 6 weeks old on the day of randomization • Animal Identification: Cage number and ear notching Cells and Materials: • RPMI-1640 (Sigma, Cat. # R8758) supplemented with 10% fetal bovine serum (FBS), L-glutamine (4 mM), streptomycin (5 μg/ml) and penicillin (5 U/ml). • BD Matrigel™ Basement Membrane Matrix Growth Factor Reduced, BD Bioscience, Cat. #354230, Lot #2229975. • 0.25% Trypsin-EDTA, Sigma, Cat. # SLBD8049. Drugs Vehicle: 0.5% HPMC/0.1% Tween 80 vehicle for BGB324. Sterile PBS for immune checkpoint inhibitors. IgG: InVivoMAb Polyclonal Armenian Hamster IgG, BE0091, BioXCell, Isotype control for IP injections. BGB324: Manufacturer: Almac Group, N Ireland, batch Q1080. BGB324 powder was stored at room temperature. The BGB324 dosage given was well below the MTD in mice (023-TR-324). […] BGB324 was diluted in vehicle to 5 mg/ml dosing solution and administered to the mice immediately. BGB324 solution was freshly prepared every day. Anti-mCTLA-4 (CD152) monoclonal antibody (CTAA-4): Syrian Hamster IgG, clone 9H10 (BioXCell, Cat. # BE0131). Anti-mPD-1 monoclonal antibody (PD-1): rat IgG2a, clone RMP1-14 (BioXCell, Cat. # BE0146). Anti-mPD-L1 monoclonal antibody (PD-L1): rat IgG2b, clone 10F.9G2 (BioXCell, Cat # BE0101). Methods Cell Culture 4T1 mammary adenocarcinoma cells and Non Small Cell Lung Cancer (NSCLC) Lewis Lung (LL2) were propagated at sub-confluence and split on a regular basis every 3rd day. After trypsinization, the cells were washed once in RPMI/FBS (7 min at 1200 rpm) and re-suspended at 4×10^6 cells/ml (4T1 cells) or 2.5×10^6 per ml (LL2 cells) in a mixture of serum-free RPMI medium and Matrigel (1:1). Subcutaneous Tumor Inoculation Each animal was weighed before cell implantation. Injection of cells was performed after anesthetizing of mice by inhalation of sevoflurane. Anesthesia was induced with 8% sevoflurane and maintained at 4%. During injection, the mouse was placed on a heating pad. For implantation of 4T1 tumors: under a suitable depth of unconsciousness, each mouse was shaved and skin surrounding the region was washed with Chlorhexidine (1 mg/ml) with use of sterile gauze. […] Assignment of Experimental Groups Before commencement of treatment, the animals were weighted and the tumor volume was measured twice a week. […]
# [2] = tested on: Lewis Lung tumors; experiment: Subcutaneous Lewis Lung syngeneic tumor model: survival, tumor burden, metastasis; assay type: in vivo; conditions: Lewis Lung tumor bearing C57Bl/6 mice; BGB324 combined with PD-1/PD-L1 compared to PD-1/PD-L1 alone
# Description: • Species/Strain: Balb/c ABomTac • Source: Taconic Farms • Sex: Female • Weight: 20-30 grams on the day of implantation • Age: at least 6 weeks old on the day of randomization • Animal Identification: Cage number and ear notching Experimental Animals for Syngeneic Lewis Lung Model: • Species/Strain: C57BL/6JOlaHsd • Source: Harlan Laboratories • Sex: Female • Weight: 20-30 grams on the day of implantation • Age: at least 6 weeks old on the day of randomization • Animal Identification: Cage number and ear notching Cells and Materials: • RPMI-1640 (Sigma, Cat. # R8758) supplemented with 10% fetal bovine serum (FBS), L-glutamine (4 mM), streptomycin (5 μg/ml) and penicillin (5 U/ml). • BD Matrigel™ Basement Membrane Matrix Growth Factor Reduced, BD Bioscience, Cat. #354230, Lot #2229975. • 0.25% Trypsin-EDTA, Sigma, Cat. # SLBD8049. Drugs Vehicle: 0.5% HPMC/0.1% Tween 80 vehicle for BGB324. Sterile PBS for immune checkpoint inhibitors. IgG: InVivoMAb Polyclonal Armenian Hamster IgG, BE0091, BioXCell, Isotype control for IP injections. BGB324: Manufacturer: Almac Group, N Ireland, batch Q1080. BGB324 powder was stored at room temperature. […] BGB324 was diluted in vehicle to 5 mg/ml dosing solution and administered to the mice immediately. BGB324 solution was freshly prepared every day. […]
# [3] = tested on: Cytotoxic T cells (CTLs), Natural Killer cells (NK), mMDSCs; experiment: Immune cell sub-populations in tumors, Lewis Lung model; assay type: in vivo, C57Bl/6 mice; conditions: BGB324 combined with PD-1/PD-L1 compared to PD-1/PD-L1 alone, day 21
# Description: • Species/Strain: Balb/c ABomTac • Source: Taconic Farms • Sex: Female • Weight: 20-30 grams on the day of implantation • Age: at least 6 weeks old on the day of randomization • Animal Identification: Cage number and ear notching Experimental Animals for Syngeneic Lewis Lung Model: • Species/Strain: C57BL/6JOlaHsd • Source: Harlan Laboratories • Sex: Female • Weight: 20-30 grams on the day of implantation • Age: at least 6 weeks old on the day of randomization • Animal Identification: Cage number and ear notching Cells and Materials: • RPMI-1640 (Sigma, Cat. # R8758) supplemented with 10% fetal bovine serum (FBS), L-glutamine (4 mM), streptomycin (5 μg/ml) and penicillin (5 U/ml). • BD Matrigel™ Basement Membrane Matrix Growth Factor Reduced, BD Bioscience, Cat. #354230, Lot #2229975. • 0.25% Trypsin-EDTA, Sigma, Cat. # SLBD8049. Drugs Vehicle: 0.5% HPMC/0.1% Tween 80 vehicle for BGB324. Sterile PBS for immune checkpoint inhibitors. IgG: InVivoMAb Polyclonal Armenian Hamster IgG, BE0091, BioXCell, Isotype control for IP injections. BGB324: Manufacturer: Almac Group, N Ireland, batch Q1080. BGB324 powder was stored at room temperature. […] BGB324 was diluted in vehicle to 5 mg/ml dosing solution and administered to the mice immediately. BGB324 solution was freshly prepared every day. Anti-mCTLA-4 (CD152) monoclonal antibody (CTAA-4): Syrian Hamster IgG, clone 9H10 (BioXCell, Cat. # BE0131). […] Anti-mPD-L1 monoclonal antibody (PD-L1): rat IgG2b, clone 10F.9G2 (BioXCell, Cat # BE0101). Methods Cell Culture 4T1 mammary adenocarcinoma cells and Non Small Cell Lung Cancer (NSCLC) Lewis Lung (LL2) were propagated at sub-confluence and split on a regular basis every 3rd day. After trypsinization, the cells were washed once in RPMI/FBS (7 min at 1200 rpm) and re-suspended at 4×10^6 cells/ml (4T1 cells) or 2.5×10^6 per ml (LL2 cells) in a mixture of serum-free RPMI medium and Matrigel (1:1). Subcutaneous Tumor Inoculation Each animal was weighed before cell implantation. Injection of cells was performed after anesthetizing of mice by inhalation of sevoflurane. […]
# [4] = 4T1 model, BGB324 combined with CTLA-4/PD-1 compared to CTLA-4/PD-1 alone, day 11
smiles,measurement,setting,value
"Nc1nc(Nc2ccc3c(c2)CC[C@@H](N2CCCC2)CC3)nn1-c1cc2c(nn1)-c1ccccc1CCC2 [BGB324, 1-(6,7-dihydro-5H-benzo[6,7]cyclohepta[1,2-c]pyridazin-3-yl)-N^3-((7-(S)-pyrrolidin-1-yl)-6,7,8,9-tetrahydro-5H-benzo[7]annulene-2-yl)-1H-1,2,4-triazole-3,5-diamine]",number of CTLs in the spleen,"[1]; 4T1 model, 43 days after treatment initiation, compared to immune check point inhibitors alone",further enhanced the number of CTLs
same,"presence of Natural Killer cells, macrophages and neutrophils in spleens",[1]; [4],"enhanced presence of NK cells, macrophages and PMN neuotrophiles"
same,presence of pro-tumorigenic mMDSCs in spleens,[1]; [4],reduction in the presence of pro-tumorigenic mMDSC
same,tumor infiltration of Cytotoxic T cells (CTLs),"[1]; 4T1 tumors, BGB324 combined with CTLA-4/PD-1 compared to CTLA-4/PD-1 alone",enhanced CTL tumor infiltration; also recorded: further enhanced tumour infiltration of CTLs
same,survival (tumor reaching 500 mm^3 as endpoint),[2],significantly prolonged survival
same,tumor burden,[2],reduced tumor burden
same,presence of pro-tumorigenic mMDSCs,[3]; Lewis Lung model,reduction in the presence of pro-tumorigenic mMDSC
same,tumor infiltration / presence of Natural Killer cells (NK),[3]; Lewis Lung tumors,enhanced presence of NK cells
same,tumor infiltration of Cytotoxic T cells (CTLs),[3]; Lewis Lung tumors,enhanced CTL tumor infiltration
